According to US12552783B2, “Modulators of proteolysis and associated methods of use” (Arvinas Operations, Inc., priority 2018, dated 2026):

Assays:
Assay type in all cases: cell-based
KRas [1] = target: T1, KRas (Homo sapiens, UniProt P01116, G12C); assay: KRas degradation in H2030 cells by Western blot (data of Table 5); design: host or cells: NCI-H2030; conditions: H2030 cells serum starved 24 hours, KRas immunoblot; for H2030 Degradation at 0.3 uM: treated 24 hours with 0.3 uM; for H2030 Degradation at 1 uM: treated 24 hours with 1 uM; for H2030 Degradation at 3 uM: treated 24 hours with 3 uM
Protocol: Cell Lines, Antibodies, and Reagents. NCI-H2030 (CRL-5914) and SW1573 (CRL-2170) cells were purchased from ATCC. Both cell lines are homozygous for the G12C mutation in KRas. NCI-H2030 cells were cultured in RPMI-1640 medium containing 1% penicillin-streptomycin and 10% fetal bovine serum (FBS). SW1573 cells were cultured in DMEM containing 1% penicillin-streptomycin and 10% FBS. The KRas detection antibody (Cat. No. LS-C175665) was purchased from LifeSpan Biosciences and was used at a dilution of 1:2000. GAPDH was detected using an antibody purchased from Cell Signaling Technology (Cat. No. 5174) and was diluted 1:3000. Secondary anti-mouse and anti-rabbit detection antibodies were purchased from Cell Signaling Technology (Cat. Nos. 7076 and 7074, respectively).
Compound Treatment and Western Blotting of the Data of Table 5. H2030 cells in 12-well plates were serum starved for 24 hours, and then treated with 0.3 uM, 1 uM, and 3 uM of the indicated bifunctional compound, for 24 hours. Cells were lysed in a Cell Signaling Technology Cell Lysis Buffer (Cat. No. #9803) supplemented with protease inhibitors, and proteins were separated by SDS-PAGE. KRas was detected by immunoblotting using the LSBio antibody (Cat. No. LS-C175665).
DC50 is the half-maximal degradation concentration—i.e., the concentration at which 50% degradation is observed. DMax is the maximum degradation efficacy is achieved—i.e., the maximal degradation observed) degradation data.

KRas [2] = target: T1, KRas; assay: KRas degradation in SW1573 cells by Western blot, normalized to GAPDH (data of Table 14)
Method in brief: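 SW1573 cells, homozygous for the KRas G12C mutation and maintained in DMEM with 10% FBS and 1% penicillin-streptomycin, were seeded in 12-well plates, allowed to attach overnight at 37° C. under 5% CO2, then serum-starved for 24 hours before compound exposure. KRas levels were measured by Western blot, normalized to GAPDH, and compared with DMSO controls to give percent degradation, DC50 and Dmax.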

KRas [3] = target: T1, KRas; assay: KRas degradation in NCI-H2030 cells by Western blot, normalized to GAPDH (data of Table 14); design: host or cells: NCI-H2030
Method in brief: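 KRas/GAPDH band ratio vs DMSO lane gives % degradation; values under 25% were estimated visually, the rest quantitated. Cells are G12C homozygous, serum-free for 24 h, then dosed at 0.3/1/3 μM (0.1% DMSO). VHL-based compounds 24 h, others 72 h.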

KRas^G12C [4] = target: T2, KRas^G12C (Homo sapiens, UniProt P01116, G12C); assay: Western blot mobility shift of KRas after treating cells with bifunctional compound (FIGS. 2A and 2B); conditions: for KRas degrader activity (representative Western blot): FIG. 2A / FIG. 2B; for covalent modification of KRas seen by gel shift: upper band is KRas and the bifunctional compound, lower band is KRas alone
T2 construct: endogenous in cells
Excerpt: FIGS. 2A and 2B show the result of treating cells with either a bifunctional compound alone or a bifunctional compound and an E3 ubiquitin ligase inhibitor, and then detecting the KRas protein on the gel. The mobility shift of KRas detection on the gel illustrates that the bifunctional compounds covalently modify KRas. The upper band is KRas and the bifunctional compound, while the lower band is KRas alone.

KRas^G12C [5] = target: T2, KRas^G12C; assay: Western blot of KRas G12C degradation and gel shift (FIGS. 2A and 2B); conditions: for covalent modification of KRas^G12C, as seen by the gel shift: Western blot gel shift, FIGS. 2A and 2B; for degrader potency shown by Western blot: FIG. 2A / FIG. 2B

SMILES: CCC(=O)N1CCN(c2nc(NCCC(=O)N(C)CCOCCOCCOCCOCC(=O)N[C@H](C(=O)N3C[C@H](O)C[C@H]3C(=O)N[C@@H](C)c3ccc(-c4scnc4C)cc3)C(C)(C)C)nc3c(F)c(-c4cc(O)cc5ccccc45)c(Cl)cc23)CC1 [compound 6, (2S,4R)-1-((2S)-2-(tert-butyl)-21-((6-chloro-8-fluoro-7-(3-hydroxynaphthalen-1-yl)-4-(4-propionylpiperazin-1-yl)quinazolin-2-yl)amino)-18-methyl-4,19-dioxo-6,9,12,15-tetraoxa-3,18-diazahenicosanoyl)-4-hydroxy-N-((S)-1-(4-(4-methylthiazol-5-yl)phenyl)ethyl) pyrrolidine-2-carboxamide]
- H2030 Degradation at 0.3 uM (KRas [1]): C (C < 25)
- H2030 Degradation at 1 uM (KRas [1]): C (C < 25)
- H2030 Degradation at 3 uM (KRas [1]): C (C < 25)

SMILES: CCC(=O)N1CCN(c2nc(NCCC(=O)N(C)CCOCCOCCOCCOCCOCC(=O)N[C@H](C(=O)N3C[C@H](O)C[C@H]3C(=O)N[C@@H](C)c3ccc(-c4scnc4C)cc3)C(C)(C)C)nc3c(F)c(-c4cc(O)cc5ccccc45)c(Cl)cc23)CC1 [compound 7, (2S,4R)-1-((2S)-2-(tert-butyl)-24-((6-chloro-8-fluoro-7-(3-hydroxynaphthalen-1-yl)-4-(4-propionylpiperazin-1-yl)quinazolin-2-yl)amino)-21-methyl-4,22-dioxo-6,9,12,15,18-pentaoxa-3,21-diazatetracosanoyl)-4-hydroxy-N-((1S)-1-(4-(4-methyl-5H-114-thiazol-5-yl)phenyl)ethyl) pyrrolidine-2-carboxamide]
- H2030 Degradation at 0.3 uM (KRas [1]): C (C < 25)
- H2030 Degradation at 1 uM (KRas [1]): C (C < 25)
- H2030 Degradation at 3 uM (KRas [1]): C (C < 25)

SMILES: CCC(=O)N1CCN(c2nc(NCCC(=O)N(C)CCOCCOCCOCCNc3cccc4c3C(=O)N(C3CCC(=O)NC3=O)C4=O)nc3c(F)c(-c4cc(O)cc5ccccc45)c(Cl)cc23)CC1 (stereo not drawn) [compound 8, 3-((6-chloro-8-fluoro-7-(3-hydroxynaphthalen-1-yl)-4-(4-propionylpiperazin-1-yl)quinazolin-2-yl)amino)-N-(2-(2-(2-(2-((2-(2,6-dioxopiperidin-3-yl)-1,3-dioxoisoindolin-4-yl)amino)ethoxy)ethoxy)ethoxy)ethyl)-N-methylpropanamide]
- H2030 Degradation at 0.3 uM (KRas [1]): C (C < 25)
- H2030 Degradation at 1 uM (KRas [1]): C (C < 25)
- H2030 Degradation at 3 uM (KRas [1]): C (C < 25)

SMILES: CCC(=O)N1CCN(c2nc(NCCC(=O)N(C)CCOCCOCCOCC(=O)N[C@H](C(=O)N3C[C@H](O)C[C@H]3C(=O)N[C@@H](C)c3ccc(-c4scnc4C)cc3)C(C)(C)C)nc3c(F)c(-c4cc(O)cc5ccccc45)c(Cl)cc23)CC1 [compound 9, (2S,4R)-1-((S)-2-(tert-butyl)-18-((6-chloro-8-fluoro-7-(3-hydroxynaphthalen-1-yl)-4-(4-propionylpiperazin-1-yl)-5H-312-quinazolin-2-yl)amino)-15-methyl-4,16-dioxo-6,9,12-trioxa-3,15-diazaoctadecanoyl)-4-hydroxy-N-((S)-1-(4-(4-methyl-312-thiazol-5-yl)phenyl)ethyl) pyrrolidine-2-carboxamide]
- H2030 Degradation at 0.3 uM (KRas [1]): C (C < 25)
- H2030 Degradation at 1 uM (KRas [1]): C (C < 25)
- H2030 Degradation at 3 uM (KRas [1]): C (C < 25)

SMILES: CCC(=O)N1CCN(c2nc(NCCC(=O)N(C)CCOCCOCCOCCOCCOc3ccc4c(c3)CN(C3CCC(=O)NC3=O)C4=O)nc3c(F)c(-c4cc(O)cc5ccccc45)c(Cl)cc23)CC1 (stereo not drawn) [compound 10, 3-((6-chloro-8-fluoro-7-(3-hydroxynaphthalen-1-yl)-4-(4-propionylpiperazin-1-yl)quinazolin-2-yl)amino)-N-(14-((2-(2,6-dioxopiperidin-3-yl)-1-oxoisoindolin-5-yl)oxy)-3,6,9,12-tetraoxatetradecyl)-N-methylpropanamide]
- H2030 Degradation at 0.3 uM (KRas [1]): C (C < 25)
- H2030 Degradation at 1 uM (KRas [1]): C (C < 25)
- H2030 Degradation at 3 uM (KRas [1]): C (C < 25)

SMILES: C=CC(=O)N1CCN(c2nc(O[C@H](C)CN3CCC(OCCOCCOCC(=O)N[C@H](C(=O)N4C[C@H](O)C[C@H]4C(=O)N[C@@H](C)c4ccc(-c5scnc5C)cc4)C(C)(C)C)CC3)nc3c(F)c(-c4cc(O)cc5ccccc45)c(Cl)cc23)CC1 [compound 399, (2S,4R)-1-((2S)-2-(2-(2-(2-((1-((2R)-2-((4-(4-acryloylpiperazin-1-yl)-6-chloro-8-fluoro-7-(3-hydroxynaphthalen-1-yl)quinazolin-2-yl)oxy)propyl)piperidin-4-yl)oxy)ethoxy)ethoxy)acetamido)-3,3-dimethylbutanoyl)-4-hydroxy-N-((S)-1-(4-(4-methylthiazol-5-yl)phenyl)ethyl)pyrrolidine-2-carboxamide]
- DC50 (KRas [2]; SW1573): < 100 nM
- Dmax (KRas [2]; SW1573): 35 to 70%
- Percent Degradation at Indicated Concentration (μM) (KRas [2]; SW1573, 0.03 μM): C (Percent Degradation: C ≤ 35)
- Percent Degradation at Indicated Concentration (μM) (KRas [2]; SW1573, 0.1 μM): B (35 < B < 70)
- Percent Degradation at Indicated Concentration (μM) (KRas [2]; SW1573, 0.3 μM): B (35 < B < 70)
- Percent Degradation at Indicated Concentration (μM) (KRas [2]; SW1573, 1 μM): B (35 < B < 70)
- Percent Degradation at Indicated Concentration (μM) (KRas [2]; SW1573, 3 μM): B (35 < B < 70)
- Percent Degradation at Indicated Concentration (μM) (KRas [2]; SW1573, 10 μM): C (Percent Degradation: C ≤ 35)
- DC50 (KRas [3]; H2030): ≥ 1000 nM
- Percent Degradation at Indicated Concentration (μM) (KRas [3]; H2030, 0.03 μM): C (Percent Degradation: C ≤ 35)
- Percent Degradation at Indicated Concentration (μM) (KRas [3]; H2030, 0.1 μM): C (Percent Degradation: C ≤ 35)
- Percent Degradation at Indicated Concentration (μM) (KRas [3]; H2030, 0.3 μM): C (Percent Degradation: C ≤ 35)
- Percent Degradation at Indicated Concentration (μM) (KRas [3]; H2030, 1 μM): C (Percent Degradation: C ≤ 35)
- Percent Degradation at Indicated Concentration (μM) (KRas [3]; H2030, 3 μM): B (35 < B < 70)
- Percent Degradation at Indicated Concentration (μM) (KRas [3]; H2030, 10 μM): C (Percent Degradation: C ≤ 35)
- Dmax (KRas [3]; NCI-H2030): 35 to 70%
- KRas degrader activity (representative Western blot) (KRas^G12C [4]): potent degrader
- covalent modification of KRas seen by gel shift (KRas^G12C [4]): covalently modify KRas^G12C
- covalent modification of KRas^G12C, as seen by the gel shift (KRas^G12C [5]): covalently modify KRas^G12C
- degrader potency shown by Western blot (KRas^G12C [5]): potent degrader

SMILES: C=CC(=O)N1CCN(c2nc(O[C@H](C)CN3CCN(CC4CCN(c5ccc6c(c5)C(=O)N(C5CCC(=O)NC5=O)C6=O)CC4)CC3)nc3c(F)c(-c4cc(O)cc5ccccc45)c(Cl)cc23)CC1 (stereo partly drawn) [compound 432, 5-(4-((4-((2R)-2-((4-(4-acryloylpiperazin-1-yl)-6-chloro-8-fluoro-7-(3-hydroxynaphthalen-1-yl)quinazolin-2-yl)oxy)propyl)piperazin-1-yl)methyl)piperidin-1-yl)-2-(2,6-dioxopiperidin-3-yl)isoindoline-1,3-dione]
- Percent Degradation at Indicated Concentration (μM) (KRas [2]; SW1573 cells, 0.1 μM): C (Percent Degradation: C ≤ 35)
- Percent Degradation at Indicated Concentration (μM) (KRas [2]; SW1573 cells, 0.3 μM): C (Percent Degradation: C ≤ 35)
- Percent Degradation at Indicated Concentration (μM) (KRas [2]; SW1573 cells, 1 μM): C (Percent Degradation: C ≤ 35)
- KRas degrader activity (representative Western blot) (KRas^G12C [4]): less active degrader
- covalent modification of KRas seen by gel shift (KRas^G12C [4]): covalently modify KRas^G12C
- covalent modification of KRas^G12C, as seen by the gel shift (KRas^G12C [5]): covalently modify KRas^G12C
- degrader potency shown by Western blot (KRas^G12C [5]): less potent degrader
